Source: PubChem BioAssay AID330 (DTP/NCI, 2004)
Several values for one entry are separate records, joined by “and”; a condition that tells them apart may be missing. Equal values may be shown once. Inconclusive results and toxic doses are left out.

Test system: P388 leukemia ip, CD2F1 mice, survival T/C
Assay: NCI In Vivo Anticancer Drug Screen. Data for tumor model P388 Leukemia (intraperitoneal) in CD2F1 (CDF1) mice
Conditions: endpoint: median survival time, higher = longer survival
In short: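 Mice carrying the transplanted tumor received test compound or vehicle. Survival was recorded in each group, and the value is the treated-group measurement divided by that of the vehicle-treated control group.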

[1] = dose: 6.25 mg/kg/injection, schedule: Q01DX009 (ip), vehicle: saline with Tween-80
[2] = dose: 12.5 mg/kg/injection, schedule: Q01DX009 (ip), vehicle: saline with Tween-80
[3] = dose: 25.0 mg/kg/injection, schedule: Q01DX009 (ip), vehicle: saline with Tween-80
[4] = dose: 50.0 mg/kg/injection, schedule: Q01DX005 (ip), vehicle: Klucel (hydroxypropylcellulose) (HPC)
[5] = dose: 100.0 mg/kg/injection, schedule: Q01DX005 (ip), vehicle: Klucel (hydroxypropylcellulose) (HPC)
[6] = dose: 200.0 mg/kg/injection, schedule: Q01DX005 (ip), vehicle: Klucel (hydroxypropylcellulose) (HPC)
[7] = dose: 50.0 mg/kg/injection, schedule: Q01DX005 (ip), vehicle: saline with Tween-80
[8] = dose: 100.0 mg/kg/injection, schedule: Q01DX005 (ip), vehicle: saline with Tween-80
[9] = dose: 200.0 mg/kg/injection, schedule: Q01DX005 (ip), vehicle: saline with Tween-80
[10] = dose: 60.0 mg/kg/injection, schedule: Q01DX005 (ip), vehicle: saline with Tween-80
[11] = dose: 120.0 mg/kg/injection, schedule: Q01DX005 (ip), vehicle: saline with Tween-80
[12] = dose: 240.0 mg/kg/injection, schedule: Q01DX005 (ip), vehicle: saline with Tween-80
[13] = dose: 50.0 mg/kg/injection, schedule: Q01DX009 (ip), vehicle: Klucel (hydroxypropylcellulose) (HPC)
[14] = dose: 100.0 mg/kg/injection, schedule: Q01DX009 (ip), vehicle: Klucel (hydroxypropylcellulose) (HPC)
[15] = dose: 200.0 mg/kg/injection, schedule: Q01DX009 (ip), vehicle: Klucel (hydroxypropylcellulose) (HPC)
[16] = dose: 12.5 mg/kg/injection, schedule: Q01DX009 (ip), vehicle: saline
[17] = dose: 50.0 mg/kg/injection, schedule: Q01DX009 (ip), vehicle: saline with Tween-80
[18] = dose: 100.0 mg/kg/injection, schedule: Q01DX009 (ip), vehicle: saline with Tween-80
[19] = dose: 200.0 mg/kg/injection, schedule: Q01DX009 (ip), vehicle: saline with Tween-80
[20] = dose: 120.0 mg/kg/injection, schedule: Q01DX005 (ip), vehicle: saline

N#CC(C#N)=NO (tested in a mixture with another compound)
T/C [1]: 100 % of control
T/C [2]: 98 % of control
T/C [3]: 100 % of control
T/C (dose: 100.0 mg/kg/injection, schedule: Q01DX009 (ip), vehicle: saline): 86 % of control

CC(C)(C)OC(=O)NC(CC(=O)OCc1ccccc1)C(=O)ON1C(=O)CCC1=O (stereo not drawn)
T/C [4]: 106 % of control
T/C [5]: 106 % of control
T/C [6]: 97 % of control

Cc1ccc(S(=O)(=O)NC(CCC(N)=O)C(=O)O)cc1 (stereo not drawn)
T/C [7]: 100 % of control
T/C [8]: 103 % of control
T/C [9]: 91 % of control

CNC(=O)OCc1c(COC(=O)NC)c(-c2ccc(SC)cc2)n(C)c1C
T/C (dose: 3.13 mg/kg/injection, schedule: Q01DX009 (ip), vehicle: distilled water + Tween-80): 187 % of control
T/C (dose: 12.5 mg/kg/injection, schedule: Q01DX009 (ip), vehicle: distilled water + Tween-80): 152 % of control
T/C (dose: 50.0 mg/kg/injection, schedule: Q01DX009 (ip), vehicle: distilled water + Tween-80): 150 % of control

O=C(Nc1ccc(Cl)c(Cl)c1)/C(Cl)=C1/Sc2ccccc2NC1=O
T/C [10]: 105 % of control
T/C [11]: 105 % of control
T/C [12]: 105 % of control

OCC(O)c1c(-c2ccc(Cl)cc2)c(-c2ccccc2)c2n1CCC2 (stereo not drawn)
T/C [4]: 97 % of control
T/C [5]: 100 % of control
T/C [6]: 90 % of control

Cc1cccc(NC(=O)Nc2ccccc2Cl)n1
T/C [13]: 102 % of control
T/C [14]: 96 % of control
T/C [15]: 93 % of control

O=S(=O)(CI)OCCCl
T/C [4]: 102 % of control
T/C [5]: 110 % of control

COc1cc2cc(-c3ccccn3)nc(N)c2cc1OC
T/C [10]: 100 % of control
T/C [11]: 101 % of control

C=CC12CCC(CC1)n1c(=O)n(C)c(=O)n12
T/C [7]: 99 % of control
T/C [8]: 103 % of control
T/C [9]: 100 % of control

CCCOc1cc2c(cc1C(C)c1ccc(OC)cc1)OCO2 (stereo not drawn)
T/C (dose: 25.0 mg/kg/injection, schedule: Q01DX005 (ip), vehicle: distilled water + alcohol): 106 % of control
T/C (dose: 400.0 mg/kg/injection, schedule: Q01DX005 (ip), vehicle: distilled water + alcohol): 112 % of control and 114 % of control

COc1cccc2c1C(=O)c1c(O)c(COC3CC(N)C(O)C(C)O3)cc(O)c1C2=O (stereo not drawn)
T/C (dose: 1.56 mg/kg/injection, schedule: Q04DX003 (ip), vehicle: water): 96 % of control
T/C (dose: 3.13 mg/kg/injection, schedule: Q04DX003 (ip), vehicle: water): 96 % of control
T/C (dose: 6.25 mg/kg/injection, schedule: Q04DX003 (ip), vehicle: water): 104 % of control
T/C (dose: 12.5 mg/kg/injection, schedule: Q04DX003 (ip), vehicle: water): 101 % of control
T/C (dose: 25.0 mg/kg/injection, schedule: Q04DX003 (ip), vehicle: water): 95 % of control

CC(=O)OCC#CCOC(C)=O
T/C (dose: 12.5 mg/kg/injection, schedule: Q01DX009 (ip), vehicle: saline sonified): 100 % of control
T/C (dose: 25.0 mg/kg/injection, schedule: Q01DX009 (ip), vehicle: saline sonified): 100 % of control
T/C (dose: 50.0 mg/kg/injection, schedule: Q01DX009 (ip), vehicle: saline sonified): 100 % of control

O=P(N1CCCCC1)(N1CC1)N1CC1
T/C (dose: 5.0 mg/kg/injection, schedule: Q04DX003 (ip), vehicle: saline): 108 % of control
T/C (dose: 5.56 mg/kg/injection, schedule: Q01DX009 (ip), vehicle: saline): 195 % of control
T/C (dose: 6.25 mg/kg/injection, schedule: Q01DX009 (ip), vehicle: saline): 163 % of control
T/C (dose: 10.0 mg/kg/injection, schedule: Q04DX003 (ip), vehicle: saline): 120 % of control
T/C [16]: 227 % of control and 86 % of control
T/C (dose: 20.0 mg/kg/injection, schedule: Q04DX003 (ip), vehicle: saline): 220 % of control
T/C (dose: 25.0 mg/kg/injection, schedule: Q01DX009 (ip), vehicle: saline): 90 % of control

O=C(O)c1ccc(O)c(O)c1.[NH2-].[NH2-].[NH2-].[NH2-].[Ru+4]
T/C (dose: 87.5 mg/kg/injection, schedule: Q04DX002 (ip), vehicle: saline): 104 % of control
T/C (dose: 175.0 mg/kg/injection, schedule: Q04DX002 (ip), vehicle: saline): 108 % of control
T/C (dose: 350.0 mg/kg/injection, schedule: Q04DX002 (ip), vehicle: saline): 105 % of control

CN(C)CCOC(=O)C1CC2(C1)CC(C(=O)OCCN(C)C)C2 (stereo not drawn)
T/C [4]: 95 % of control
T/C [5]: 97 % of control
T/C [6]: 103 % of control

COC(=O)c1cc(-c2ccccc2Cl)n2c(N)nnc2n1
T/C [10]: 118 % of control
T/C [11]: 105 % of control
T/C [12]: 101 % of control

COC(=O)C(CSC(c1ccccc1)(c1ccccc1)c1ccccc1)NC(=O)CCNC(=O)OCc1ccccc1 (stereo not drawn)
T/C (dose: 6.25 mg/kg/injection, schedule: Q01DX009 (ip), vehicle: other): 103 % of control
T/C (dose: 12.5 mg/kg/injection, schedule: Q01DX009 (ip), vehicle: other): 97 % of control
T/C (dose: 25.0 mg/kg/injection, schedule: Q01DX009 (ip), vehicle: other): 94 % of control
T/C (dose: 50.0 mg/kg/injection, schedule: Q01DX009 (ip), vehicle: other): 88 % of control

O=C(O)CCNS(=O)(=O)c1ccc2c(c1)-c1ccccc1C2
T/C [3]: 92 % of control
T/C [17]: 102 % of control and 104 % of control and 97 % of control
T/C [18]: 101 % of control and 107 % of control and 98 % of control
T/C [19]: 102 % of control and 124 % of control

COc1cc(OC)c(C(=O)C(CN(C)C)CN(C)C)cc1OC
T/C (dose: 1.87 mg/kg/injection, schedule: Q01DX005 (ip), vehicle: saline): 113 % of control
T/C (dose: 3.75 mg/kg/injection, schedule: Q01DX005 (ip), vehicle: other): 113 % of control
T/C (dose: 3.75 mg/kg/injection, schedule: Q01DX005 (ip), vehicle: saline): 107 % of control
T/C (dose: 7.5 mg/kg/injection, schedule: Q01DX005 (ip), vehicle: other): 108 % of control
T/C (dose: 7.5 mg/kg/injection, schedule: Q01DX005 (ip), vehicle: saline): 106 % of control
T/C (dose: 15.0 mg/kg/injection, schedule: Q01DX005 (ip), vehicle: saline): 107 % of control
T/C [20]: 124 % of control

OC(c1ccncc1)(c1ccc(Cl)cc1)c1cccs1 (stereo not drawn)
T/C [13]: 101 % of control
T/C [14]: 98 % of control
T/C [15]: 93 % of control

CCOP(=O)(OCC)/C(C#N)=C\c1ccc(N(C)C)cc1
T/C (dose: 100.0 mg/kg/injection, schedule: Q01DX001 (ip), vehicle: saline with Tween-80): 100 % of control
T/C (dose: 200.0 mg/kg/injection, schedule: Q01DX001 (ip), vehicle: saline with Tween-80): 104 % of control
T/C (dose: 400.0 mg/kg/injection, schedule: Q01DX001 (ip), vehicle: saline with Tween-80): 100 % of control

CCCCCCCCCCCN(C)C
T/C [7]: 105 % of control
T/C [8]: 105 % of control

CCOc1ccc(/C=N/NC(=O)c2ccc(O)c(OC)c2)cc1OC
T/C (dose: 60.0 mg/kg/injection, schedule: Q01DX005 (ip), vehicle: saline): 100 % of control
T/C [20]: 102 % of control
T/C (dose: 240.0 mg/kg/injection, schedule: Q01DX005 (ip), vehicle: saline): 95 % of control

COC(=O)CCC(C)C1CCC2C3=CC(=O)C4CC(OC(C)=O)CCC4(C)C3CC(OC(C)=O)C21C (stereo not drawn)
T/C [17]: 109 % of control
T/C [18]: 94 % of control
T/C [19]: 87 % of control

CCCCCCC(=O)/C=C/c1ccc(OC(=O)c2ccc(OC)cc2)cc1
T/C [1]: 100 % of control
T/C [2]: 105 % of control
T/C [3]: 98 % of control
T/C [17]: 91 % of control
T/C [18]: 89 % of control

Cc1cc2oc(=O)cc(C(=O)O)c2c(=O)o1
T/C (dose: 100.0 mg/kg/injection, schedule: Q04DX003 (ip), vehicle: Klucel (hydroxypropylcellulose) (HPC)): 102 % of control
T/C (dose: 200.0 mg/kg/injection, schedule: Q04DX003 (ip), vehicle: Klucel (hydroxypropylcellulose) (HPC)): 95 % of control
T/C (dose: 400.0 mg/kg/injection, schedule: Q04DX003 (ip), vehicle: Klucel (hydroxypropylcellulose) (HPC)): 87 % of control

CC(=O)Oc1ccc(=O)[nH]c1
T/C [16]: 100 % of control and 105 % of control
